Consider 34 molecules from patent EP0121972A2, “N-aryl-alpha-amino-carboxamides” (JANSSEN PHARMACEUTICA N.V., priority 1983, dated 1984).

Where only a bound is given, the exact number is not on record here.

The subject of the assay is multifocal ventricular arrhythmia. As to the kind of experiment: Antiarrhythmic effect in dogs with ventricular arrhythmia after coronary artery ligation. It is filed as in vivo. As to conditions: given intravenously; for minimal effective dose: Canis lupus familiaris, iv, lowest effective dose normalizing the cardial rhythm, about 16 hours after ligation of the anterior descendent branch of the left coronary artery, under neuroleptanalgesia, read-out: Antiarrhythmic effects in dogs LED in mg/kg body weight; for Antiarrhythmic effects in dogs duration: duration of action at the lowest effective dose, coronary-ligated dogs. Here is the method:
The compounds of formula (I) and their pharmaceutically acceptable acid addition salts and possible stereochemically isomeric forms thereof show excellent antiarrhythmic properties and as such they are useful in the normalization of irregular cardial rhythms. The antiarrhythmic effect of the compounds of this invention is clearly illustrated in the following experiment in dogs. The test was carried out under neuroleptanalgesia (1 ml per 10 kg body weight of fentanyl (0.4 mg/ml) and droperidol (20 mg/ml)).
The test compounds were given intravenously after a control period of 30 minutes.

With `CO[C@@H]1CCCC[C@H]1N1CCC(C(=O)Nc2c(C)cccc2C)(N(C)C)CC1` (relative stereo) [compound 18, trans-4-(dimethylamino)-N-(2,6-dimethylphenyl)-l-(2-methoxycyclo-hexyl)-4-piperidinecarboxamide], the minimal effective dose turned out to be 0.08 mg/kg and the “Antiarrhythmic effects in dogs duration” value amounted to 150 min.
Taken in the same sequence, the figures for `Cc1cccc(C)c1NC(=O)C1(N(C)C)CCN([C@@H]2CCCC[C@H]2O)CC1` (relative stereo) [compound 89, trans-4-(dimethylamino)-N-(2,6-dimethylphenyl)-1-(2-hydroxycyclohexyl)-4-piperidinecarboxamide] were 0.04 mg/kg and 240 min.
With `Cc1cccc(C)c1NC(=O)C1(N(C)C)CCN([C@@H]2CCC[C@H]2O)CC1` (relative stereo) [compound 91], the minimal effective dose stood at 0.08 mg/kg and the “Antiarrhythmic effects in dogs duration” value is 220 min.
Taken in the same sequence, the figures for `CCN(CC)C1(C(=O)Nc2c(C)cccc2C)CCN([C@@H]2CCC[C@H]2O)CC1` (relative stereo) [compound 92] were 0.31 mg/kg and 205 min.
Taken in the same sequence, the figures for `CCN(CC)C1(C(=O)Nc2c(C)cccc2C)CCN([C@@H]2CCCC[C@H]2O)CC1` (relative stereo) [compound 93] were 0.63 mg/kg and 30 min.
Taken in the same sequence, the figures for `Cc1cc(N(C)C)cc(C)c1NC(=O)C1(N(C)C)CCN([C@@H]2CCCC[C@H]2O)CC1` (relative stereo) [compound 125] were 0.08 mg/kg and 165 min.
For `Cc1cccc(C)c1NC(=O)C1(N2CCOCC2)CCN([C@@H]2CCCC[C@H]2O)CC1` (relative stereo) [compound 127, trans-N-(2,6-dimethylphenyl)-l-(2-hydroxycyclohexyl)-4-(4-morpholinyl)-4-piperidinecarboxamide], the minimal effective dose came to 0.31 mg/kg and the “Antiarrhythmic effects in dogs duration” value worked out at 55 min.
Consider `Cc1cccc(C)c1NC(=O)C1(N(C)C)CCN([C@@H]2CCC[C@H]2NCc2ccccc2)CC1` (relative stereo) [compound 129, trans-4-(dimethylamino)-N-(2,6-dimethylphenyl)-l-[2-[(phenylmethyl)amino]cyclopentyl]-4-piperidinecarboxamide], for which the minimal effective dose is 0.08 mg/kg.
`Cc1cccc(C)c1NC(=O)C1(N(C)C)CCN([C@@H]2CCNC[C@H]2O)CC1` (relative stereo) [compound 210, trans-4-(dimethylamino)-N-(2,6-dimethylphenyl)-3'-hydroxy-[1,4'-bipiperidine]-4-carboxamide]: the minimal effective dose was found to be 0.16 mg/kg and the “Antiarrhythmic effects in dogs duration” value was 25 min.
As for `Cc1cccc(C)c1NC(=O)C1(N(C)C)CCN([C@H]2CNCC[C@@H]2O)CC1` (relative stereo) [compound 211, trans-4-(dimethylamino)-N-(2,6-dimethylphenyl)-4'-hydroxy-[l,3'-bipiperidine]-4-carboxamide], the minimal effective dose came out at 0.63 mg/kg and the “Antiarrhythmic effects in dogs duration” value was determined as 160 min.
Taken in the same sequence, the figures for `Cc1cccc(C)c1NC(=O)C1(N(C)C)CCN([C@H]2CCC[C@@H]2N)CC1` (relative stereo) [compound 217, trans-l-(2-aminocyclopentyl)-4-(dimethylamino)-N-(2,6-dimethylphenyl)-4-piperidinecarboxamide] were 0.31 mg/kg and 50 min.
Taken in the same sequence, the figures for `CC(=O)N[C@H]1CCC[C@@H]1N1CCC(C(=O)Nc2c(C)cccc2C)(N(C)C)CC1` (relative stereo) [compound 219, trans-l-[2-(acetylamino)cyclopentyl]-4-(dimethylamino)-N-(2,6-dimethylphenyl)-4-piperidinecarboxamide] were 0.08 mg/kg and 285 min.
Taken in the same sequence, the figures for `Cc1cccc(C)c1NC(=O)C1(N(C)C)CCN([C@H]2CCCC[C@@H]2NC(N)=O)CC1` (relative stereo) [compound 224, trans-1-[2-[(aminocarbonyl)-amino]cyclohexyl]-4-(dimethyJamino)-N-(2,6-dimethylphenyl)-4-piperidinecarboxamide] were 0.04 mg/kg and 130 min.
Take `Cc1cccc(C)c1NC(=O)C1(N(C)C)CCN([C@@H]2CCC[C@H]2N(CCO)Cc2ccccc2)CC1` (relative stereo) [compound 225, trans-4-(dimethyl-amino)-N-(2,6-dimethylphenyl)-1-[2-[(2-hydroxyethyl)(phenylmethyl)-amino]cyclopentyl]-4-piperidinecarboxamide]: the minimal effective dose worked out at 0.08 mg/kg and the “Antiarrhythmic effects in dogs duration” value stood at 140 min.
Taken in the same sequence, the figures for `Cc1cccc(C)c1NC(=O)C1(N(C)C)CCN([C@H]2CCC[C@@H]2NCCO)CC1` (relative stereo) [compound 231, trans-4-(dimethylamino)-N-(2,6-dimethylphenyl)-l-[2-[(2-hydroxyethyl)amino]cyclopentyl]-4-piperidinecarboxamide] were 0.16 mg/kg and more than 230 min.
Taken in the same sequence, the figures for `CCN(CC)C1(C(=O)Nc2c(C)cccc2C)CCN(C(C)C)CC1` [compound 53, 4-(diethylamino)-N-(2,6-dimethylphenyl)-1-(1-methylethyl)-4-piperidinecarboxamide] were 0.63 mg/kg and 140 min.
Taken in the same sequence, the figures for `CCN(CC)C1(C(=O)Nc2c(C)cccc2C)CCN(C2CCCC2)CC1` [compound 54, 1-cyclopentyl-4-(diethylamino)-N-(2,6-dimethylphenyl)-4-piperidinecarboxamide] were 0.16 mg/kg and 240 min.
In the case of `Cc1cccc(C)c1NC(=O)C1(N(C)C)CCNCC1` [compound 71, 4-(dimethylamino)-N-(2,6-dimethylphenyl)-4-piperidinecarboxamide], the minimal effective dose is 1.25 mg/kg and the “Antiarrhythmic effects in dogs duration” value stood at 240 min.
Taken in the same sequence, the figures for `CCN(C)C1(C(=O)Nc2c(C)cccc2C)CCNCC1` [compound 73, N-(2,6-dimethylphenyl)-4-(ethylmethylamino)-4-piperidine carboxamide] were 0.63 mg/kg and 30 min.
Taken in the same sequence, the figures for `COC1CNCCC1N1CCC(C(=O)Nc2c(C)cccc2C)(N(C)C)CC1` (stereo not drawn) [compound 85, cis-4-(dimethylamino)-N-(2,6-dimethylphenyl)-3'-methoxy-[l,4'-bipiperidine]-4-carboxamide] were 0.63 mg/kg and 65 min.
Taken in the same sequence, the figures for `Cc1cccc(C)c1NC(=O)C1(N(C)C)CCN(C2CCNCC2)CC1` [compound 86, 4-(dimethylamino)-N-(2,6-dimethylphenyl)-[1,4'-bipiperidine]-4-carboxamide] were 0.16 mg/kg and 185 min.
Consider `Cc1cccc(C)c1NC(=O)C1(N(C)C)CCN(CC(O)CN(Cc2ccccc2)Cc2ccccc2)CC1` (stereo not shown) [compound 96, 1-[3-[bis(phenylmethyl)amino]-2-hydroxypropyl]-4-(dimethylamino)-N-(2,6-dimethylphenyl)-4-piperidinecarboxamide], for which the minimal effective dose was determined as 0.31 mg/kg and the “Antiarrhythmic effects in dogs duration” value was found to be 40 min.
Taken in the same sequence, the figures for `Cc1cccc(C)c1NC(=O)C1(N(C)C)CCN(CC(O)CO)CC1` (stereo not shown) [compound 97] were 0.31 mg/kg and 60 min.
Taken in the same sequence, the figures for `Cc1cccc(C)c1NC(=O)C1(N(C)C)CCN(C2CCCC2)CC1` [compound 130, l-cyclopentyl-4-(dimethylamino)-N-(2,6-dimethylphenyl)-4-piperidinecarboxamide] were 0.16 mg/kg and 65 min.
Turning to `Cc1cccc(C)c1NC(=O)C1(N(C)C)CCN(C(C)C)CC1` [compound 132], the minimal effective dose came out at 0.16 mg/kg and the “Antiarrhythmic effects in dogs duration” value is 140 min.
With `CCN1CCC(C(=O)Nc2c(C)cccc2C)(N(C)C)CC1` [compound 134], the minimal effective dose amounted to 0.63 mg/kg and the “Antiarrhythmic effects in dogs duration” value is 100 min.
Taken in the same sequence, the figures for `Cc1cccc(C)c1NC(=O)C1(N(C)C)CCN(CC2CC2)CC1` [compound 135] were 0.16 mg/kg and 190 min.
Taken in the same sequence, the figures for `CCCN1CCC(C(=O)Nc2c(C)cccc2C)(N(C)C)CC1` [compound 136] were 0.16 mg/kg and 15 min.
Taken in the same sequence, the figures for `CCCCN1CCC(C(=O)Nc2c(C)cccc2C)(N(C)C)CC1` [compound 137] were 0.16 mg/kg and 145 min.
Regarding `CCN(C)C1(C(=O)Nc2c(C)cccc2C)CCN(C(C)C)CC1` [compound 138], the minimal effective dose was determined as 1.25 mg/kg and the “Antiarrhythmic effects in dogs duration” value worked out at 100 min.
Taken in the same sequence, the figures for `CCN(CC)C1(C(=O)Nc2c(C)cccc2C)CCN(C(C)COC)CC1` (stereo not shown) [compound 140] were 0.31 mg/kg and 220 min.
Take `CCN(CC)C1(C(=O)Nc2c(C)cccc2C)CCN(C2CCCCC2)CC1` [compound 141]: the minimal effective dose was determined as 0.16 mg/kg and the “Antiarrhythmic effects in dogs duration” value was 40 min.
Taken in the same sequence, the figures for `CCN(CC)C1(C(=O)Nc2cc(Cl)ccc2C)CCN(C(C)C)CC1` [compound 143] were 0.31 mg/kg and 95 min.
Taken in the same sequence, the figures for `CCOC(=O)N1CCC(N2CCC(C(=O)Nc3c(C)cccc3C)(N(C)C)CC2)C(OC)C1` (stereo not shown) [compound 144] were 0.16 mg/kg and 40 min.
